In patent publication US20020142995A1, “Ammonium salts of hemoglobin allosteric effectors, and uses thereof” (priority 2000, published 2002):
“And” between values parts separate entries of the source, which are not always exact repeats. Identical values can stand only once. Like-named read-outs stand apart in the source and are kept apart here.

What was measured:
goldfish free hemoglobin = target: T1, goldfish free hemoglobin (Carassius auratus, UniProt P02018+P02140); experiment: Oxygen dissociation curves of goldfish free hemoglobin with allosteric effectors; assay type: biochemical; design: unit not given beside the values
T1 construct: human and goldfish free hemoglobin controls; from tissue; host or cells: goldfish blood (erythrocyte hemoglobin freed from cells); inferred from 'free hemoglobin' beside 'whole blood'
T1 sequence (P02140 1-147): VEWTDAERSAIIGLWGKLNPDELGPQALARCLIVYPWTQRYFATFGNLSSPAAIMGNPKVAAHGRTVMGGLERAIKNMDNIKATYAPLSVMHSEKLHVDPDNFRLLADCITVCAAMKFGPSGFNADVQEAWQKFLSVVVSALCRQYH
T1 sequence (P02018 1-142): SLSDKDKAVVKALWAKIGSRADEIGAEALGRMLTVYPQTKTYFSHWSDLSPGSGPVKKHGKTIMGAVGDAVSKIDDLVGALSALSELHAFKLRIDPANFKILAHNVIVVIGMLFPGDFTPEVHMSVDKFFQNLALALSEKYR
Experimental: FIG. 3 tabulates the P50 values of human and goldfish whole blood controls, human and goldfish free hemoglobin controls, and goldfish free hemoglobin that has been pre-incubated with various allosteric effectors and an ammonium salt of one of them.
FIG. 5 depicts oxygen dissociation curves of human free hemoglobin (pH 7.1; […]), goldfish free hemoglobin (pH 7.1; P50=8.5), and goldfish free hemoglobin+0.25 μmol IHP (pH 7.1; P50=15.0).
FIG. 6 depicts oxygen dissociation curves of goldfish free hemoglobin+0.5 μmol PCHA-DPG (pH 7.1; P50=10.3), goldfish free hemoglobin+0.5 μmol ATP (pH 7.08; P50=21.0), and goldfish free hemoglobin+0.5 μmol GTP (pH 7.11; P50=23.0).

stripped hemoglobin = stripped hemoglobin (Homo sapiens, UniProt P68871); conditions: cited from earlier work
stripped hemoglobin, sequence (P69905 2-142 partner limits assumed): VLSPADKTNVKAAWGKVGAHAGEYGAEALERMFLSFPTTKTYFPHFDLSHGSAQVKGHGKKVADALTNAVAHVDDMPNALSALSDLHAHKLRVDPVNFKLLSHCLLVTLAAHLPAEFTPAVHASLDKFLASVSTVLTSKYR
stripped hemoglobin, sequence (P68871 2-147 limits assumed): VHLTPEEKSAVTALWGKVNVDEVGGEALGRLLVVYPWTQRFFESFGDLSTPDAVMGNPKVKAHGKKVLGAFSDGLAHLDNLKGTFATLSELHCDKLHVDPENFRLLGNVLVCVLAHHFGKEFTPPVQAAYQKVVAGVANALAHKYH

[1] = Visual appearance of effector solution; assay type: physicochemical
Experimental: Preparation of Effector Stock: Effector stock was prepared at 100-120 mM (Molal solution) using water or Bis-Tris Buffer.

Red Blood Cells = experiment: Aggregation of red blood cells after incubation with effector; assay type: cell-based; conditions: whole blood incubated with effector
Experimental: Incubation: Whole blood (75-300 μL) was incubated with 200 μL of effector at 37° C. for 5-10 min. (see Summary of Results below).
Washes: After incubation of whole blood with/without effector, blood cells were washed four times with Saline buffer or HBS (BSA) by centrifugal pelleting to remove exogenous effector and to evaluate hemolysis. After final centrifugation, pellet was not resuspended.

whole blood = experiment: Blood oxygen dissociation (Hemox Analyzer) of whole blood pre-incubated with effector; assay type: cell-based; design: Observed P50: unit not given here; conditions: for P50 of treated-washed RBC pellet vs. control: after resuspended in HBS; for change of the P50 of treated Red Blood Cells vs. control: observation, whole blood incubated with effector
Experimental: Whole blood was collected from one subject. The blood was stored in a Vacutainer with Solution A (ACD) and stored at 4-8° C.
Effector characteristics prior to incubation were:
(see Summary of Results below).
Washes: After incubation of whole blood with/without effector, blood cells were washed four times with Saline buffer or HBS (BSA) by centrifugal pelleting to remove exogenous effector and to evaluate hemolysis. […]
Blood Oxygen Dissociation Reading: Blood Oxygen Dissociation of samples were determined using a Hemox Analizer Model B (TCS Medical Products Company, New Hope, Pa.) The sample chamber contained:
10-20 μL Pelleted Blood Cells incubated with Effector.
All readings were made at 36.7-37.2° C. and at pH 7.28-7.32. The P50S were calculated from the Dissociation Curves (see FIGS. 16-23) compared to same day control P50.

[2] = target: allosteric site on hemoglobin (Homo sapiens, UniProt P68871); conditions: displaces hemoglobin-bound 2,3-DPG; cited from earlier work
allosteric site on hemoglobin, sequence (P69905 2-142 partner limits assumed): as the sequence (P69905 2-142 partner limits assumed) above
allosteric site on hemoglobin, sequence (P68871 2-147 limits assumed): as the sequence (P68871 2-147 limits assumed) above

human RBCs = conditions: IHP encapsulated in human RBCs by electroporation; cited from earlier work
[3] = goldfish free hemoglobin + 0.5 μmol effector, pH 7.08-7.11
[4] = 75 μL whole blood incubated (2-5 min) with 200 μL 30 mM effector, washed 4×, 15 μL RBC measured at 37° C.

Compound | P50 (goldfish free hemoglobin; [3]) | appearance of the solution [1] | aggregation of Red Blood Cells (Red Blood Cells) | Observed P50 (whole blood; [4]) | change of the P50 of treated Red Blood Cells vs. control (whole blood) | further results
Nc1nc2c(ncn2[C@@H]2O[C@H](COP(=O)(O)OP(=O)(O)OP(=O)(O)O)[C@@H](O)[C@H]2O)c(=O)[nH]1 [GTP] | 23.0 |  |  |  |  | 
O=C(O)C(COP(=O)(O)O)OP(=O)(O)O (stereo not drawn) [2,3-Diphosphoglycerate] |  |  |  |  |  | half-saturation pressure P(O2) (½) (stripped hemoglobin; pH 7.4, 25 C.): 12.0 mm Hg; half-saturation pressure P(O2) (½) (stripped hemoglobin; pH 7.4, 37 C.): 23.7 mm Hg
Cyclohexylammonium-Inositol Hexaphosphate [CHA-IHP] |  | visually clear | no aggregation | 42.0 and 58.2 and 32.8 | Increases the P50 | Observed P50 (whole blood; 75 μL whole blood + 200 μL 30 mM effector, washed 4×, cell pellet stored for 48 hrs at 4-8° C., measured at 37° C.): 50.5; P50 of treated-washed RBC pellet vs. control (whole blood): maintain higher P50 than the control; P50 EFF:WB (whole blood; same sample as FIG. 12C, evaluated 48 h later (stored at 4-8 C.), 25 mM, 171 mOsM): 50.5 mmHg
O=P(O)(O)O[C@H]1[C@H](OP(=O)(O)O)[C@@H](OP(=O)(O)O)[C@H](OP(=O)(O)O)[C@@H](OP(=O)(O)O)[C@H]1OP(=O)(O)O [IHP, myo-inositol hexakis (dehydrogen Phosphate)] |  | visually clear | no aggregation |  | No change | half-saturation pressure P(O2) (½) (stripped hemoglobin; pH 7.4, 25 C.): 48.4 mm Hg; half-saturation pressure P(O2) (½) (stripped hemoglobin; pH 7.4, 37 C.): 96.4 mm Hg; affinity for the allosteric site relative to 2,3-DPG [2]: one-thousand times greater affinity; P50 (goldfish free hemoglobin; goldfish free hemoglobin + 0.25 μmol effector, pH 7.1): 15.0; Observed P50 (whole blood; 75 μL whole blood + 200 μL 30 mM effector, 2-5 min, 37° C., Hypotonic, Osm: 185 mOsM): 37.5; P50 of modified RBCs (human RBCs): approximately 50 torr
O=C([O-])[C@@H](COP(=O)([O-])[O-])OP(=O)([O-])[O-].[Na+].[Na+].[Na+].[Na+].[Na+] [PNa-DPG, 2,3 Diphospho-D-Glyceric Acid (Pentasodium salt)] |  | visually clear | no aggregation | 38.2 | No change | Observed P50 (whole blood; 75 μL whole blood + 200 μL 30 mM effector, 2-5 min, 37° C., Hypotonic, Osm: 163 mOsM): 37.5; Observed P50 (whole blood; 75 μL whole blood + 200 μL 30 mM effector, 2-5 min, 37° C., Isotonic, Osm: 321 mOsM): 39.6
NC1CCCCC1 [CHA, Cyclohexylamine] |  | visually clear | no aggregation | 28.5 and 26.8 | No change | 
NC1CCCCC1.NC1CCCCC1.NC1CCCCC1.NC1CCCCC1.NC1CCCCC1.O=C(O)[C@@H](COP(=O)(O)O)OP(=O)(O)O [PCHA-DPG, 2,3 Diphospho-D-Glyceric Acid (Pentacyclohexyclammonium salt)] | 10.3 | visually clear | no aggregation | 50.5 and 47.3 and 36.0 | Increases the P50 | P50 of treated-washed RBC pellet vs. control (whole blood): maintain higher P50 than the control
Nc1ncnc2c1ncn2[C@@H]1O[C@H](COP(=O)(O)OP(=O)(O)OP(=O)(O)O)[C@@H](O)[C@H]1O [ATP, adenosine triphosphate] | 21.0 |  |  |  |  | 
